According to patent publication US20140171465A1, “Methods For Increasing Reticulocyte Hemoglobin Content” (FibroGen, Inc., priority 2011, published 2014):

Legend:
Format in all cases: in vivo
[1] = test system: human subjects with end-stage renal disease; assay: Mean hemoglobin levels in human subjects with end-stage renal disease, 6 weeks TIW; conditions: six week treatment period; Compound A 1.5 mg/kg and 2.0 mg/kg TIW; epoetin alfa TIW
[2] = test system: human subjects with stage 3 and stage 4 chronic kidney disease; assay: Reticulocyte hemoglobin content (CHr) in human subjects with stage 3 or stage 4 chronic kidney disease, 17 weeks
Description: The effect of compound of the present invention on CHr was determined in human subjects with stage 3 and stage 4 chronic kidney disease patients (eGFR<60 ml/min) as follows. Subjects with stage 3 or stage 4 chronic kidney disease not receiving dialysis were administered Compound A at either approximately 1.2 mg/kg twice weekly or 70 mg fixed dose thrice weekly for a period of 17 weeks. Dose adjustments were permitted from week 5 onward to correct and maintain subjects to a target hemoglobin range; however, doses were not allowed to exceed 2.5 mg/kg per dose. CHr values were measured at week 9 and week 17.

human patients = assay: Safety and efficacy of tested doses in human patients; conditions: doses between 0.7 and 2.5 mg/kg administered TIW, BIW, or QW
Description: In a particular embodiment, the present invention provides an efficacious therapeutic compound for treating a subject having reduced reticulocyte hemoglobin content. Specifically, the invention comprises the compound [(4-hydroxy-1-methyl-7-phenoxy-isoquinoline-3-carbonyl)-amino]-acetic acid for use in methods of increasing reticulocyte hemoglobin content (CHr) in a subject.

[3] = test system: human subjects with end-stage renal disease; assay: Reticulocyte hemoglobin content (CHr) in human subjects with end-stage renal disease, 6 weeks TIW; conditions: for Mean Change (pg) from Baseline CHr at Day 43 (6 weeks) of Treatment: ESRD on hemodialysis, no IV iron
Description: The effect of a compound of the present invention on CHr was determined in human subjects with end-stage renal disease as follows. In the current studies, subjects had been receiving stable maintenance hemodialysis for at least 4 months prior to the initiation of the present study. Additionally, subjects had been maintained on standard of care stable doses of epoetin alfa for the treatment of anemia prior to initiation of the present study.
In order to examine differences in the CHr response in subjects treated with compound of the invention compared to the CHr response in subject treated with epoetin alpha (the current standard of care), all IV iron supplementation was halted two weeks prior to treatment initiation. Administration of oral iron was allowed.
[…] Baseline CHr levels were determined prior to treatment (mean of two screening period measurements with the Day 1 measurement). CHr levels were measured weekly throughout the six-week study period.
In contrast, CHr decreased in subjects treated with epoetin alfa during the same time period.

## Cc1nc(C(=O)NCC(=O)O)c(O)c2ccc(Oc3ccccc3)cc12 [Compound A, [(4-hydroxy-1-methyl-7-phenoxy-isoquinoline-3-carbonyl)-amino]-acetic acid]
[1]
  changes in mean hemoglobin levels (FIG. 2): time-dependent increase in mean hemoglobin levels
[2]; 70 mg fixed dose TIW, weeks 9 to 17
  maintenance of mean CHr (FIG. 3B): maintenance of mean CHr from 9 to 17 weeks
[2]; approximately 1.2 mg/kg BIW or 70 mg TIW, 17 weeks, CKD stage 3/4 not on dialysis
  mean CHr over time (FIG. 3A, 3B): mean CHr increased over time
Human patients
  safety and efficacy of tested doses: safe, useful, and effective
[3]; 1 mg/kg TIW, N = 10
  Mean Change (pg) from Baseline CHr at Day 43 (6 weeks) of Treatment: +0.41 pg
[3]; 1.3 mg/kg TIW (N=5)
  mean increase in CHr over baseline after 6 weeks of treatment: 0.85 pg/cell
[3]; 1.5 mg/kg TIW, N = 9
  Mean Change (pg) from Baseline CHr at Day 43 (6 weeks) of Treatment: +0.10 pg
[3]; 1.8 mg/kg TIW (N=5)
  mean increase in CHr over baseline after 6 weeks of treatment: 0.82 pg/cell
[3]; 2.0 mg/kg TIW, N = 9
  Mean Change (pg) from Baseline CHr at Day 43 (6 weeks) of Treatment: +0.44 pg
[3]; six week treatment period, Compound A 1.0, 1.5 and 2.0 mg/kg TIW, epoetin alfa TIW
  change from baseline of the mean CHr over time (FIG. 1): increase in mean CHr over time
